Results published in PubChem BioAssay (NCI).
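Protocol summary: plate cells (96-well), add compound at 5 concentrations, incubate 48 h, interpolate endpoints linearly. At the TGI there is no net growth.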

Assays:
Test in all cases: NCI anticancer screen, dose series, 48 h
SN12C renal = tested on: SN12C renal
RPMI-8226 leukemia = tested on: RPMI-8226 leukemia
MALME-3M melanoma = tested on: MALME-3M melanoma
HOP-62 NSCLC = tested on: HOP-62 NSCLC
DU-145 prostate = tested on: DU-145 prostate
SF-539 CNS = tested on: SF-539 CNS
OVCAR-5 ovarian = tested on: OVCAR-5 ovarian
HCT-15 colon = tested on: HCT-15 colon
IGROV1 ovarian = tested on: IGROV1 ovarian
MDA-MB-435 = tested on: MDA-MB-435
OVCAR-8 ovarian = tested on: OVCAR-8 ovarian
SK-MEL-28 melanoma = tested on: SK-MEL-28 melanoma
SW-620 colon = tested on: SW-620 colon
CAKI-1 renal = tested on: CAKI-1 renal
HL-60(TB) leukemia = tested on: HL-60(TB) leukemia
UO-31 renal = tested on: UO-31 renal
SR leukemia = tested on: SR leukemia
NCI-H460 lung = tested on: NCI-H460 lung
MOLT-4 leukemia = tested on: MOLT-4 leukemia
BT-549 breast = tested on: BT-549 breast
UACC-62 melanoma = tested on: UACC-62 melanoma
SK-MEL-5 melanoma = tested on: SK-MEL-5 melanoma
HCC-2998 colon = tested on: HCC-2998 colon
HS 578T breast = tested on: HS 578T breast
SK-OV-3 ovarian = tested on: SK-OV-3 ovarian
TK-10 renal = tested on: TK-10 renal
OVCAR-4 ovarian = tested on: OVCAR-4 ovarian
COLO 205 colon = tested on: COLO 205 colon
KM12 colon = tested on: KM12 colon
SF-295 CNS = tested on: SF-295 CNS
U251 CNS = tested on: U251 CNS
HOP-92 NSCLC = tested on: HOP-92 NSCLC
SNB-19 CNS = tested on: SNB-19 CNS
UACC-257 melanoma = tested on: UACC-257 melanoma
PC-3 prostate = tested on: PC-3 prostate
M14 melanoma = tested on: M14 melanoma
MCF7 breast = tested on: MCF7 breast
RXF 393 renal = tested on: RXF 393 renal
LOX IMVI melanoma = tested on: LOX IMVI melanoma
HT29 colon = tested on: HT29 colon
A549 NSCLC = tested on: A549 NSCLC
MDA-N = tested on: MDA-N
EKVX NSCLC = tested on: EKVX NSCLC
NCI-H522 lung = tested on: NCI-H522 lung
HCT-116 colon = tested on: HCT-116 colon
K-562 leukemia = tested on: K-562 leukemia
NCI-H226 lung = tested on: NCI-H226 lung
NCI/ADR-RES ovarian = tested on: NCI/ADR-RES ovarian
MDA-MB-231 breast = tested on: MDA-MB-231 breast
SF-268 CNS = tested on: SF-268 CNS
SK-MEL-2 melanoma = tested on: SK-MEL-2 melanoma
SNB-75 CNS = tested on: SNB-75 CNS
NCI-H23 lung = tested on: NCI-H23 lung
CCRF-CEM leukemia = tested on: CCRF-CEM leukemia
786-0 renal = tested on: 786-0 renal
OVCAR-3 ovarian = tested on: OVCAR-3 ovarian
T-47D breast = tested on: T-47D breast
A498 renal = tested on: A498 renal
ACHN renal = tested on: ACHN renal

## Nc1c2c(nc3ccccc13)-c1ccccc1CCC2
SN12C renal
  TGI: 36.5 µM
RPMI-8226 leukemia
  TGI: 33.5 µM
MALME-3M melanoma
  TGI: 27.5 µM
HOP-62 NSCLC
  TGI: 22.3 µM
DU-145 prostate
  TGI: 32.8 µM
SF-539 CNS
  TGI: 26.2 µM
OVCAR-5 ovarian
  TGI: 30 µM
HCT-15 colon
  TGI: 27.3 µM
IGROV1 ovarian
  TGI: 37.7 µM
MDA-MB-435
  TGI: 26.3 µM
OVCAR-8 ovarian
  TGI: 29.1 µM
SK-MEL-28 melanoma
  TGI: 27.3 µM
SW-620 colon
  TGI: 26.2 µM
CAKI-1 renal
  TGI: 32.5 µM
HL-60(TB) leukemia
  TGI: 26.4 µM
UO-31 renal
  TGI: 22.3 µM
SR leukemia
  TGI: 11 µM
NCI-H460 lung
  TGI: 18 µM
MOLT-4 leukemia
  TGI: 33 µM
BT-549 breast
  TGI: 44.4 µM
UACC-62 melanoma
  TGI: 22.7 µM
SK-MEL-5 melanoma
  TGI: 20.1 µM
HCC-2998 colon
  TGI: 12.2 µM
HS 578T breast
  TGI: 43.2 µM
SK-OV-3 ovarian
  TGI: 31 µM
TK-10 renal
  TGI: 25.2 µM
OVCAR-4 ovarian
  TGI: 35.6 µM
COLO 205 colon
  TGI: 27.1 µM
KM12 colon
  TGI: 33.4 µM
SF-295 CNS
  TGI: 19.1 µM
U251 CNS
  TGI: 28.3 µM
HOP-92 NSCLC
  TGI: 25.9 µM
SNB-19 CNS
  TGI: 55.4 µM
UACC-257 melanoma
  TGI: 19.4 µM
PC-3 prostate
  TGI: 36.3 µM
M14 melanoma
  TGI: 25.8 µM
MCF7 breast
  TGI: 28.6 µM
RXF 393 renal
  TGI: 23.7 µM
LOX IMVI melanoma
  TGI: 25.3 µM
HT29 colon
  TGI: 25.9 µM
A549 NSCLC
  TGI: 29.9 µM
MDA-N
  TGI: 25.9 µM
EKVX NSCLC
  TGI: 44.8 µM
NCI-H522 lung
  TGI: 32.4 µM
HCT-116 colon
  TGI: 20.2 µM
K-562 leukemia
  TGI: 33.8 µM
NCI-H226 lung
  TGI: 28.9 µM
NCI/ADR-RES ovarian
  TGI: 34.3 µM
MDA-MB-231 breast
  TGI: 27.8 µM
SF-268 CNS
  TGI: 37.2 µM
SK-MEL-2 melanoma
  TGI: 28.2 µM
SNB-75 CNS
  TGI: 24.2 µM
NCI-H23 lung
  TGI: 37.8 µM
CCRF-CEM leukemia
  TGI: 49.1 µM
786-0 renal
  TGI: 27.1 µM
OVCAR-3 ovarian
  TGI: 29.8 µM
T-47D breast
  TGI: 37.5 µM
A498 renal
  TGI: 21.4 µM
ACHN renal
  TGI: 26.5 µM

## COC(=O)/C=C1\C(=O)N(C(C)=O)c2ccccc21
SN12C renal
  TGI: 24.3 µM
RPMI-8226 leukemia
  TGI: 47.6 µM
MALME-3M melanoma
  TGI: 27.5 µM
HOP-62 NSCLC
  TGI: 30.2 µM
DU-145 prostate
  TGI: 24.1 µM
SF-539 CNS
  TGI: > 46.4 µM
OVCAR-5 ovarian
  TGI: 59.1 µM
HCT-15 colon
  TGI: 26.2 µM
IGROV1 ovarian
  TGI: 22.4 µM
MDA-MB-435
  TGI: 32.2 µM
OVCAR-8 ovarian
  TGI: 45.6 µM
SK-MEL-28 melanoma
  TGI: 32.7 µM
SW-620 colon
  TGI: > 100 µM
CAKI-1 renal
  TGI: 0.184 µM
HL-60(TB) leukemia
  TGI: 5.61 µM
UO-31 renal
  TGI: 26.4 µM
SR leukemia
  TGI: > 27.5 µM
NCI-H460 lung
  TGI: 27.1 µM
MOLT-4 leukemia
  TGI: 31.4 µM
BT-549 breast
  TGI: 27.4 µM
UACC-62 melanoma
  TGI: 18.4 µM
SK-MEL-5 melanoma
  TGI: 27.8 µM
HCC-2998 colon
  TGI: 31.4 µM
HS 578T breast
  TGI: 25.8 µM
SK-OV-3 ovarian
  TGI: 29.7 µM
TK-10 renal
  TGI: 21.7 µM
OVCAR-4 ovarian
  TGI: 17.5 µM
COLO 205 colon
  TGI: 29.3 µM
KM12 colon
  TGI: 29.2 µM
SF-295 CNS
  TGI: > 55.2 µM
U251 CNS
  TGI: 37.2 µM
HOP-92 NSCLC
  TGI: 16.8 µM
SNB-19 CNS
  TGI: > 51.9 µM
UACC-257 melanoma
  TGI: 22.2 µM
PC-3 prostate
  TGI: > 54.9 µM
M14 melanoma
  TGI: 58.7 µM
MCF7 breast
  TGI: 28.2 µM
RXF 393 renal
  TGI: 21.5 µM
LOX IMVI melanoma
  TGI: 18.7 µM
HT29 colon
  TGI: 20.6 µM
A549 NSCLC
  TGI: > 57.6 µM
MDA-N
  TGI: 25.2 µM
EKVX NSCLC
  TGI: 31 µM
NCI-H522 lung
  TGI: 15.6 µM
HCT-116 colon
  TGI: 31.2 µM
K-562 leukemia
  TGI: > 96.5 µM
NCI-H226 lung
  TGI: 27.8 µM
NCI/ADR-RES ovarian
  TGI: 62.8 µM
MDA-MB-231 breast
  TGI: 21.3 µM
SF-268 CNS
  TGI: > 61.3 µM
SK-MEL-2 melanoma
  TGI: 33.5 µM
SNB-75 CNS
  TGI: 28.4 µM
NCI-H23 lung
  TGI: 28.9 µM
CCRF-CEM leukemia
  TGI: 10.1 µM
786-0 renal
  TGI: 20.9 µM
OVCAR-3 ovarian
  TGI: 23 µM
T-47D breast
  TGI: 30.5 µM
A498 renal
  TGI: 20 µM
ACHN renal
  TGI: 20.1 µM
